Target: T1, CCR2 (Homo sapiens, UniProt P41597)
T1 sequence (P41597 1-360 isoform P41597-2): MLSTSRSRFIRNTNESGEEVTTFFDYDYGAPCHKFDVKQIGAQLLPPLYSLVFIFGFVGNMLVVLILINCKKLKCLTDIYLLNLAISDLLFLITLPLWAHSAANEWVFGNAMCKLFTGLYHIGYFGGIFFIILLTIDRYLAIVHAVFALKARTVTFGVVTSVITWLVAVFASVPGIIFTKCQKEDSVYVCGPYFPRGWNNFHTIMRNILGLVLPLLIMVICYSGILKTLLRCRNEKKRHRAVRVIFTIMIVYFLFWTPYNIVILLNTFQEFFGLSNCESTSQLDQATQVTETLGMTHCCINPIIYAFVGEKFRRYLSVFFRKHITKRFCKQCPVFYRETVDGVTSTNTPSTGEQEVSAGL
Assay: MCP-1 Receptor Binding Assay in THP-1 Cells
Settings: for IC50: THP-1 cells, 0.5 nM 125I labeled MCP-1, 2 hours at 30° C., read-out: Mean Ligand Binding IC50 (inhibition of MCP-1 binding to CCR2); for inhibition at 25 µM: MCP-1 binding to CCR2, test concentration of 25 μM, unless indicated otherwise, read-out: % Inhibition Ligand Binding
Description: THP-1 cells were obtained from American Type Culture Collection (Manassas, Va., USA). […] The cell density was maintained between 0.5×10^6 cells/mL.
Cells were then harvested onto a filter plate, dried, and 20 μL of Microscint 20 was added to each well. Plates were counted in a TopCount NXT, Microplate Scintillation & Luminescence Counter (Perkin-Elmer Life Sciences, Inc. Boston, Mass.). Blank values (buffer only) were subtracted from all values and drug treated values were compared to vehicle treated values. 1 μM cold MCP-1 was used for nonspecific binding.

IC50 [nM]	inhibition at 25 µM [%]	SMILES
900		C[N+](C)(Cc1ccc(NC(=O)c2ccc3ccc(Br)cc3c2)cc1)C1CCOCC1 [Cpd 93, {4-[(7-bromo-naphthalene-2-carbonyl)-amino]-benzyl}-dimethyl-(tetrahydro-pyran-4-yl)-ammonium iodide]
1300		C[N+](C)(Cc1ccc(NC(=O)c2ccc3ccc(Br)cc3c2)cc1)C1CCCCC1 [Cpd 94, {4-[(7-bromo-naphthalene-2-carbonyl)-amino]-benzyl}-cyclohexyl-dimethyl-ammonium iodide]
180		C[N+](C)(Cc1ccc(NC(=O)C2=Cc3cc(Br)ccc3OC2)cc1)C1CCOCC1 [Cpd 95, {4-[(6-bromo-2H-chromene-3-carbonyl)-amino]-benzyl}-dimethyl-(tetrahydro-pyran-4-yl)-ammonium iodide]
110		C[N+](C)(Cc1ccc(NC(=O)C2=Cc3cc(Cl)ccc3OC2)cc1)C1CCOCC1 [Cpd 96, {4-[(6-chloro-2H-chromene-3-carbonyl)-amino]-benzyl}-dimethyl-(tetrahydro-pyran-4-yl)-ammonium iodide]
450		C[N+](C)(Cc1ccc(NC(=O)C2=Cc3cc(Br)ccc3OC2)cc1)C1CCCCC1 [Cpd 97, {4-[(6-bromo-2H-chromene-3-carbonyl)-amino]-benzyl}-cyclohexyl-dimethyl-ammonium iodide]
270		C[N+](C)(Cc1ccc(NC(=O)C2=Cc3cc(Cl)ccc3OC2)cc1)C1CCCCC1 [Cpd 98, {4-[(6-chloro-2H-chromene-3-carbonyl)-amino]-benzyl}-cyclohexyl-dimethyl-ammonium iodide]
	34	C[N+](C)(Cc1ccc(CNC(=O)C2=Cc3cc(Br)ccc3OC2)cc1)C1CCOCC1 [Cpd 99, (4-{[(6-bromo-2H-chromene-3-carbonyl)-amino]-methyl}-benzyl)-dimethyl-(tetrahydro-pyran-4-yl)-ammonium iodide]
520		C[N+](C)(Cc1ccc(NC(=O)C2=Cc3c(Cl)cc(Cl)cc3OC2)cc1)C1CCOCC1 [Cpd 100, {4-[(5,7-dichloro-2H-chromene-3-carbonyl)-amino]-benzyl}-dimethyl-(tetrahydro-pyran-4-yl)-ammonium iodide]
1100		C[N+](C)(Cc1ccc(NC(=O)C2=Cc3c(Cl)cc(Cl)cc3OC2)cc1)C1CCCCC1 [Cpd 101, cyclohexyl-{4-[(5,7-dichloro-2H-chromene-3-carbonyl)-amino]-benzyl}-dimethyl-ammonium iodide]
190		C[N+](C)(Cc1ccc(NC(=O)C2=Cc3cc(Cl)cc(Cl)c3OC2)cc1)C1CCOCC1 [Cpd 102, {4-[(6,8-dichloro-2H-chromene-3-carbonyl)-amino]-benzyl}-dimethyl-(tetrahydro-pyran-4-yl)-ammonium iodide]
820		Cc1ccc2c(c1)C=C(C(=O)Nc1ccc(C[N+](C)(C)C3CCOCC3)cc1)CO2 [Cpd 103, dimethyl-{4-[(6-methyl-2H-chromene-3-carbonyl)-amino]-benzyl}-(tetrahydro-pyran-4-yl)-ammonium iodide]
1900		COc1ccc2c(c1)C=C(C(=O)Nc1ccc(C[N+](C)(C)C3CCOCC3)cc1)CO2 [Cpd 104, {4-[(6-methoxy-2H-chromene-3-carbonyl)-amino]-benzyl}-dimethyl-(tetrahydro-pyran-4-yl)-ammonium iodide]
320		Cc1ccc2c(c1)C=C(C(=O)Nc1ccc(C[N+](C)(C)C3CCCCC3)cc1)CO2 [Cpd 105, cyclohexyl-dimethyl-{4-[(6-methyl-2H-chromene-3-carbonyl)-amino]-benzyl}-ammonium iodide]
1100		COc1ccc2c(c1)C=C(C(=O)Nc1ccc(C[N+](C)(C)C3CCCCC3)cc1)CO2 [Cpd 106, cyclohexyl-{4-[(6-methoxy-2H-chromene-3-carbonyl)-amino]-benzyl}-dimethyl-ammonium iodide]
170		C[N+](C)(Cc1ccc(NC(=O)C2=Cc3cc(Cl)cc(Cl)c3OC2)cc1)C1CCCCC1 [Cpd 107, cyclohexyl-{4-[(6,8-dichloro-2H-chromene-3-carbonyl)-amino]-benzyl}-dimethyl-ammonium iodide]
3100		C[N+](C)(Cc1ccc(NC(=O)C2=Cc3cc(Cl)ccc3OC2)cc1)C[C@H]1CCCO1 [Cpd 108, (2R)-{4-[(6-chloro-2H-chromene-3-carbonyl)-amino]-benzyl}-dimethyl-(tetrahydro-furan-2-ylmethyl)-ammonium iodide]
5300		C[N+](C)(Cc1ccc(NC(=O)C2=Cc3cc(Cl)ccc3OC2)cc1)C[C@@H]1CCCO1 [Cpd 109, (2S)-{4-[(6-chloro-2H-chromene-3-carbonyl)-amino]-benzyl}-dimethyl-(tetrahydro-furan-2-ylmethyl)-ammonium iodide]

IC50 [nM]	inhibition at 25 µM [%]	SMILES
320		C[N+](C)(Cc1ccc(NC(=O)C2=Cc3cc(Cl)ccc3OC2)cc1)[C@H]1CC2CCC1C2 (stereo partly drawn) [Cpd 110, (2S)-bicyclo[2.2.1]hept-2-yl-{4-[(6-chloro-2H-chromene-3-carbonyl)-amino]-benzyl}-dimethyl-ammonium iodide]
2000		C[N+](C)(Cc1ccc(NC(=O)C2=Cc3cc(Cl)cc(Cl)c3OC2)cc1)C1CC2CCC1C2 (stereo not drawn) [Cpd 111, bicyclo[2.2.1]hept-2-yl-{4-[(6,8-dichloro-2H-chromene-3-carbonyl)-amino]-benzyl}-dimethyl-ammonium iodide]
150		Cc1cccc2c1OCC(C(=O)Nc1ccc(C[N+](C)(C)C3CCOCC3)cc1)=C2 [Cpd 112, dimethyl-{4-[(8-methyl-2H-chromene-3-carbonyl)-amino]-benzyl}-(tetrahydro-pyran-4-yl)-ammonium iodide]
530		Cc1cccc2c1OCC(C(=O)Nc1ccc(C[N+](C)(C)C3CCCCC3)cc1)=C2 [Cpd 113, cyclohexyl-dimethyl-{4-[(8-methyl-2H-chromene-3-carbonyl)-amino]-benzyl}-ammonium iodide]
60		Cc1cc(Cl)cc2c1OCC(C(=O)Nc1ccc(C[N+](C)(C)C3CCCCC3)cc1)=C2 [Cpd 114, {4-[(6-chloro-8-methyl-2H-chromene-3-carbonyl)-amino]-benzyl}-cyclohexyl-dimethyl-ammonium iodide]
50		Cc1cc(Cl)cc2c1OCC(C(=O)Nc1ccc(C[N+](C)(C)C3CCOCC3)cc1)=C2 [Cpd 115, {4-[(6-chloro-8-methyl-2H-chromene-3-carbonyl)-amino]-benzyl}-dimethyl-(tetrahydro-pyran-4-yl)-ammonium iodide]
600		C[N+](C)(Cc1ccc(NC(=O)C2=Cc3ccc(Cl)c(Cl)c3OC2)cc1)C1CCCCC1 [Cpd 116, cyclohexyl-{4-[(7,8-dichloro-2H-chromene-3-carbonyl)-amino]-benzyl}-dimethyl-ammonium iodide]
120		Cc1cc(Cl)cc2c1OCC(C(=O)Nc1ccc(C[N+](C)(C)C3CC4CCC3C4)cc1)=C2 (stereo not drawn) [Cpd 117, bicyclo[2.2.1]hept-2-yl-{4-[(6-chloro-8-methyl-2H-chromene-3-carbonyl)-amino]-benzyl}-dimethyl-ammonium iodide]
200		Cc1cc(Cl)cc2c1OCC(C(=O)Nc1ccc(C[N+](C)(C)C3CCCCCC3)cc1)=C2 [Cpd 118, {4-[(6-chloro-8-methyl-2H-chromene-3-carbonyl)-amino]-benzyl}-cycloheptyl-dimethyl-ammonium iodide]
100		Cc1cc(Cl)cc2c1OCC(C(=O)Nc1ccc(C[N+](C)(C)C3CCCC3)cc1)=C2 [Cpd 119, {4-[(6-chloro-8-methyl-2H-chromene-3-carbonyl)-amino]-benzyl}-cyclopentyl-dimethyl-ammonium iodide]
30		Cc1cc(Cl)cc2c1OCC(C(=O)Nc1ccc(C[N+](C)(C)C3CCSC3)cc1)=C2 (stereo not drawn) [Cpd 120, {4-[(6-chloro-8-methyl-2H-chromene-3-carbonyl)-amino]-benzyl}-dimethyl-(tetrahydro-thiophen-3-yl)-ammonium iodide]
	37	Cc1cc(Cl)cc2c1OCC(C(=O)NCc1ccc(C[N+](C)(C)C3CCOCC3)cc1)=C2 [Cpd 121, (4-{[(6-chloro-8-methyl-2H-chromene-3-carbonyl)-amino]-methyl}-benzyl)-dimethyl-(tetrahydro-pyran-4-yl)-ammonium iodide]
580		C[N+](C)(Cc1ccc(NC(=O)C2=Cc3cc(Cl)cc(Cl)c3OC2)cc1)C1CCSC1 (stereo not drawn) [Cpd 122, {4-[(6,8-dichloro-2H-chromene-3-carbonyl)-amino]-benzyl}-dimethyl-(tetrahydro-thiophen-3-yl)-ammonium iodide]
	100	C[N+](C)(Cc1ccc(NC(=O)C2=Cc3cc(F)ccc3OC2)cc1)C1CCCCC1 [Cpd 123, cyclohexyl-{4-[(6-fluoro-2H-chromene-3-carbonyl)-amino]-benzyl}-dimethyl-ammonium iodide]
	100	C[N+](C)(Cc1ccc(NC(=O)C2=Cc3c(F)cccc3OC2)cc1)C1CCCCC1 [Cpd 124, cyclohexyl-{4-[(5-fluoro-2H-chromene-3-carbonyl)-amino]-benzyl}-dimethyl-ammonium iodide]
	100	C[N+](C)(Cc1ccc(NC(=O)C2=Cc3cc(C(F)(F)F)ccc3OC2)cc1)C1CCCCC1 [Cpd 125, cyclohexyl-dimethyl-{4-[(6-trifluoromethyl-2H-chromene-3-carbonyl)-amino]-benzyl}-ammonium iodide]
